Data reported in US20240327364A1, “THERAPEUTIC TARGETING OF GPR68 TO INDUCE FERROPTOSIS” (University Of Maryland, Baltimore, priority 2023, published 2024).

Key:
WM115 = assay: Scratch assay; assay type: cell-based, human; settings: 20 hours, OGM2 5 uM
Protocol: (§1) Since there are numerous parallels are found between neural crest cells and cancer during migration, we examined whether OGM could inhibit the migration of cells in human melanoma cell lines (Oppitz et al., 2007; Schriek et al., 2005, Sinnberg et al., 2018). […] A2058. MeWo and WM115 cells were grown to confluence and a stripe of cells were denuded with a p200 pipette tip “scratch” and rinsed with PBS. Cells were treated with OGM or DMSO and incubated in low serum media. Imaging was done at 30 minutes after “scratch” and then 20 hours afterwards. Areas were then measured and normalized to the initial area.

MeWo = assay: Scratch assay; assay type: cell-based, human; settings: 20 hours, OGM2 5 uM
Protocol: as §1

PANC02 = assay: Clonogenicity (crystal violet); assay type: cell-based; settings: 7 days
Protocol: In a third study, PANC02 pancreatic cells were plated at 400 cells per well in a 6-well plate and on the next day were treated with increasing concentrations of OGM2 for 7 days. The plate was fixed with formalin and stained with crystal violet.

[1] = target: T1, RSK1(Kin.Dom.2-C-terminal) (Homo sapiens, UniProt Q15418); assay: KinomeScan; assay type: binding; settings: read-out: % Control
T1 construct: RSK1(Kin.Dom.2-C-terminal); purchased DiscoveRx (Fremont, CA)

A2B = target: T2, A2B (Homo sapiens, UniProt P29275); assay: GPCR Profiler; assay type: cell-based
T2 construct: host or cells: Chem-1 cells with promiscuous Gα15

IKK-beta = target: T3, IKK-beta (Homo sapiens, UniProt O14920); assay: KinomeScan; assay type: binding; settings: read-out: % Control
T3 construct: purchased DiscoveRx (Fremont, CA)

LIMK1 = target: T4, LIMK1 (Homo sapiens, UniProt P53667); assay: KinomeScan; assay type: binding; settings: read-out: % Control
T4 construct: purchased DiscoveRx

ERK2 = target: T5, ERK2 (Homo sapiens, UniProt P28482); assay: KinomeScan; assay type: binding; settings: read-out: % Control
T5 construct: purchased DiscoveRx (Fremont, CA)

NEK9 = target: T6, NEK9 (Homo sapiens, UniProt Q8TD19); assay: KinomeScan; assay type: binding; settings: read-out: % Control
T6 construct: purchased DiscoveRx

AXL = target: T7, AXL (Homo sapiens, UniProt P30530); assay: KinomeScan; assay type: binding; settings: read-out: % Control
T7 construct: purchased DiscoveRx (Fremont, CA)

[2] = target: T8, ABL1(F317I)-phosphorylated (Homo sapiens, UniProt P00519, F317I); assay: KinomeScan; assay type: binding; settings: read-out: % Control
T8 construct: purchased DiscoveRx

ADCK4 = target: T9, ADCK4 (Homo sapiens, UniProt Q96D53); assay: KinomeScan; assay type: binding; settings: read-out: % Control
T9 construct: purchased DiscoveRx (Fremont, CA)

AT1 = target: T10, AT1 (Homo sapiens, UniProt P30556); assay: GPCR Profiler; assay type: cell-based
T10 construct: host or cells: Chem-1 cells with promiscuous Gα15

INSRR = target: T11, INSRR (Homo sapiens, UniProt P14616); assay: KinomeScan; assay type: binding; settings: read-out: % Control
T11 construct: purchased DiscoveRx (Fremont, CA)

MEK2 = target: T12, MEK2 (Homo sapiens, UniProt P36507); assay: KinomeScan; assay type: binding; settings: read-out: % Control
T12 construct: purchased DiscoveRx (Fremont, CA)

CAMK4 = target: T13, CAMK4 (Homo sapiens, UniProt Q16566); assay: KinomeScan; assay type: binding; settings: read-out: % Control
T13 construct: purchased DiscoveRx (KinomeScan service)

[3] = target: T14, ABL1(Q252H)-nonphosphorylated (Homo sapiens, UniProt P00519, Q252H); assay: KinomeScan; assay type: binding; settings: read-out: % Control
T14 construct: purchased DiscoveRx

NIM1 = target: T15, NIM1 (Homo sapiens, UniProt Q8IY84); assay: KinomeScan; assay type: binding; settings: read-out: % Control
T15 construct: purchased DiscoveRx

[4] = target: T16, ABL1(H396P)-nonphosphorylated (Homo sapiens, UniProt P00519, H396P); assay: KinomeScan; assay type: binding; settings: read-out: % Control
T16 construct: purchased DiscoveRx

CCR4 = target: T17, CCR4 (Homo sapiens, UniProt P51679); assay: GPCR Profiler; assay type: cell-based
T17 construct: host or cells: Chem-1 cells with Gα15

NK1 = target: T18, NK1 (Homo sapiens, UniProt P25103); assay: GPCR Profiler; assay type: cell-based
T18 construct: host or cells: Chem-1 cells expressing Gα15

MST1R = target: T19, MST1R (Homo sapiens, UniProt Q04912); assay: KinomeScan; assay type: binding; settings: read-out: % Control
T19 construct: purchased DiscoveRx

VPAC1 = target: T20, VPAC1 (Homo sapiens, UniProt P32241); assay: GPCR Profiler; assay type: cell-based
T20 construct: host or cells: Chem-1 cells expressing Galpha15

DLK = target: T21, DLK (Homo sapiens, UniProt Q12852); assay: KinomeScan; assay type: binding; settings: read-out: % Control
T21 construct: purchased DiscoveRx (Fremont, CA), KinomeScan service

mGlu2 = target: T22, mGlu2 (Homo sapiens, UniProt Q14416); assay: GPCR Profiler; assay type: cell-based
T22 construct: host or cells: Chem-1 cells expressing Gα15

D1 = target: T23, D1 (Homo sapiens, UniProt P21728); assay: GPCR Profiler; assay type: cell-based
T23 construct: host or cells: Chem-1 cells with Gα15

LKB1 = target: T24, LKB1 (Homo sapiens, UniProt Q15831); assay: KinomeScan; assay type: binding; settings: read-out: % Control
T24 construct: purchased DiscoveRx

ULK3 = target: T25, ULK3 (Homo sapiens, UniProt Q6PHR2); assay: KinomeScan; assay type: binding; settings: read-out: % Control
T25 construct: purchased DiscoveRx

CAMK2A = target: T26, CAMK2A (Homo sapiens, UniProt Q9UQM7); assay: KinomeScan; assay type: binding; settings: read-out: % Control
T26 construct: purchased DiscoveRx (KinomeScan service)

MAST1 = target: T27, MAST1 (Homo sapiens, UniProt Q9Y2H9); assay: KinomeScan; assay type: binding; settings: read-out: % Control
T27 construct: purchased DiscoveRx (Fremont, CA)

RET(V804L) = target: T28, RET(V804L) (Homo sapiens, UniProt P07949, V804L); assay: KinomeScan; assay type: binding; settings: read-out: % Control
T28 construct: purchased DiscoveRx (Fremont, CA)

VPAC2 = target: T29, VPAC2 (Homo sapiens, UniProt P41587); assay: GPCR Profiler; assay type: cell-based
T29 construct: host or cells: Chem-1 cells expressing Galpha15
T29 sequence (P41587 24-438): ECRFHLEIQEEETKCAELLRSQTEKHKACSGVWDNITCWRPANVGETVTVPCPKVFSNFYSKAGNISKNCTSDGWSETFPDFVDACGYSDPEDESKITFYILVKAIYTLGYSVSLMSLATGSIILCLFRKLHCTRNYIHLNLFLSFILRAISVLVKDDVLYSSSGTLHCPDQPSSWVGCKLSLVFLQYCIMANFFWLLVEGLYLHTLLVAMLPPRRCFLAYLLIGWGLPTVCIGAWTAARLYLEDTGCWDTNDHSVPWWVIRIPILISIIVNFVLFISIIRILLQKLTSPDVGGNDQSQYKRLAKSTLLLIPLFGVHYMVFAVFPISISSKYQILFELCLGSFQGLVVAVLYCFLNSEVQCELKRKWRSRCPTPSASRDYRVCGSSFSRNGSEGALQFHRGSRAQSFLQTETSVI

T18 sequence (P25103 whole entry): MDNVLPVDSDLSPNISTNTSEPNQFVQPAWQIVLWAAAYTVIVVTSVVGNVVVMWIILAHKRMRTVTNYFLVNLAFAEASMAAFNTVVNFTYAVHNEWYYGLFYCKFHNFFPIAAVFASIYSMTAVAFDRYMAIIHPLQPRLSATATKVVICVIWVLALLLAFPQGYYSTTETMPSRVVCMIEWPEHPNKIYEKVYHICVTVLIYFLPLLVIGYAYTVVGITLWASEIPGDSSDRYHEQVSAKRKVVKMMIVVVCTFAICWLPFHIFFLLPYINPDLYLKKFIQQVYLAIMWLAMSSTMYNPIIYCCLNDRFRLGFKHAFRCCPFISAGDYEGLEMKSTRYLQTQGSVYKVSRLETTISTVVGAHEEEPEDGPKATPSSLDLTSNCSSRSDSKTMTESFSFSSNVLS
T17 sequence (P51679 whole entry): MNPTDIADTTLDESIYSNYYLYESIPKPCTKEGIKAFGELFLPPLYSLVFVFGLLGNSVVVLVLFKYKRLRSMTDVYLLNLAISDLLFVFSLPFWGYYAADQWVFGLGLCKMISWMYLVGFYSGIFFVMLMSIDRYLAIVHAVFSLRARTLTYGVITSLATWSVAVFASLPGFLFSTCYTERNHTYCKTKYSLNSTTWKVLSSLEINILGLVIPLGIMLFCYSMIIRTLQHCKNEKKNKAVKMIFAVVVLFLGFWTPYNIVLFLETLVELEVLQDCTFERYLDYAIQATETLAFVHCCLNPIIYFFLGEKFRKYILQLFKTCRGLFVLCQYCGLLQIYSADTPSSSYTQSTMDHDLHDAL
T2 sequence (P29275 whole entry): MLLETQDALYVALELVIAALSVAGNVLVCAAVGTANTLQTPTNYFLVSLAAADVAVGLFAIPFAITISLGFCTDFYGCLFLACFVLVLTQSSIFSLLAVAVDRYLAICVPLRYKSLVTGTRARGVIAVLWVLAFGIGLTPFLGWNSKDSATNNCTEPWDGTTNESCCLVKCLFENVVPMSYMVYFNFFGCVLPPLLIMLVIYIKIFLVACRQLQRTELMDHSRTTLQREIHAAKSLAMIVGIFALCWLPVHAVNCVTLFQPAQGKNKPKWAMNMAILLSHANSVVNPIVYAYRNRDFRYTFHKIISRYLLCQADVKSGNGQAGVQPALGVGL
T10 sequence (P30556 whole entry): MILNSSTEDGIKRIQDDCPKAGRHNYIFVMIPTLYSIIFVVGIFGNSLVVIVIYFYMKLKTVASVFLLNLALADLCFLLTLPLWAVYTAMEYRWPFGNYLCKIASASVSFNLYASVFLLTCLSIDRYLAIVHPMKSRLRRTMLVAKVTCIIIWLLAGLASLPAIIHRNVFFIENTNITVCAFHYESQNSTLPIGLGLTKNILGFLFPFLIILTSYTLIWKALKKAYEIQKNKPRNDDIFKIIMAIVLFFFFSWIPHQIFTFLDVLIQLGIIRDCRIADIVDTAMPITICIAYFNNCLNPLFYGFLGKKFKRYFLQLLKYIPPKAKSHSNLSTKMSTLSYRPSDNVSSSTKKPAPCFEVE
T20 sequence (P32241 31-457): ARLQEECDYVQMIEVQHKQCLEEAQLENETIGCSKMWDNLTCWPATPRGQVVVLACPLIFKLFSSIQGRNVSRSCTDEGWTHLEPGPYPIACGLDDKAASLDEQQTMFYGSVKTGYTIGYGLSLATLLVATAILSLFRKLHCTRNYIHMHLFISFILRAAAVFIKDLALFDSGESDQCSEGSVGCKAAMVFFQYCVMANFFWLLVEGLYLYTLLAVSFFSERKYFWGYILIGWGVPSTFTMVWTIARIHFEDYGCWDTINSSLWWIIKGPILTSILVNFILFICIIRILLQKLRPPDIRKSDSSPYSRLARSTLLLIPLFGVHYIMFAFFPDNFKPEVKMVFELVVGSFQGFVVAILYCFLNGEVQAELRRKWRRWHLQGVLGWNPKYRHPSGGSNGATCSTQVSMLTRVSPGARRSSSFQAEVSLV
T22 sequence (Q14416 19-872): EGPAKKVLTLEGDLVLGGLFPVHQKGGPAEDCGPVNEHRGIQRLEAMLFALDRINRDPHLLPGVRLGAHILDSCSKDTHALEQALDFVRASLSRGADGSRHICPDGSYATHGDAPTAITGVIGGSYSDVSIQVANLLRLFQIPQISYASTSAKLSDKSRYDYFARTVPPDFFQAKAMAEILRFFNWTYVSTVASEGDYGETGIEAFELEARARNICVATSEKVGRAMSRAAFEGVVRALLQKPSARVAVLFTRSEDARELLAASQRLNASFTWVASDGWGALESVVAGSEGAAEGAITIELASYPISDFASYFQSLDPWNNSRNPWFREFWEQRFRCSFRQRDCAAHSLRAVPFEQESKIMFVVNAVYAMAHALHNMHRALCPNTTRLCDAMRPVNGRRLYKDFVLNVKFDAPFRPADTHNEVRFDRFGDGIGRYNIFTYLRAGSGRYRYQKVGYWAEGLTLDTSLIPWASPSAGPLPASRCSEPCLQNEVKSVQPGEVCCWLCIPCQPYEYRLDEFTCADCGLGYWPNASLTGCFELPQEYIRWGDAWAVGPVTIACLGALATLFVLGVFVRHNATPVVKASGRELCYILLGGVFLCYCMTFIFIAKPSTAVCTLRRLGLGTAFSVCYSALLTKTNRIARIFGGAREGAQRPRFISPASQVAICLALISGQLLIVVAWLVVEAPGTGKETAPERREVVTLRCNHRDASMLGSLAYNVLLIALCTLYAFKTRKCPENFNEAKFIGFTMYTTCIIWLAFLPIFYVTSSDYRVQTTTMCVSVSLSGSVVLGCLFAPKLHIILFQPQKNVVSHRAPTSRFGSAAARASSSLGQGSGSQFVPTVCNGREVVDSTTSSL
T23 sequence (P21728 whole entry): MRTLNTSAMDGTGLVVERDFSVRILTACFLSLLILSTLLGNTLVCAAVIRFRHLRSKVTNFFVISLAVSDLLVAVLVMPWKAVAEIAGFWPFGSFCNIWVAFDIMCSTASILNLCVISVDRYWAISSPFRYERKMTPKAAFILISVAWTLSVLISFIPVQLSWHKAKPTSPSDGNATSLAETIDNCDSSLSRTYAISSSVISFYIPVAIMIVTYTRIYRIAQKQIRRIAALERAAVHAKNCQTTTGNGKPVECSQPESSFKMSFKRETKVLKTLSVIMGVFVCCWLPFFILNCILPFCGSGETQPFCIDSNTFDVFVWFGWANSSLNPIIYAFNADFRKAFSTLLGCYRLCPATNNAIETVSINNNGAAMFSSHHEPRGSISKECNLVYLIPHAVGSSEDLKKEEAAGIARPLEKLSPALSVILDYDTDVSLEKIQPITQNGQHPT
T12 sequence (P36507 whole entry): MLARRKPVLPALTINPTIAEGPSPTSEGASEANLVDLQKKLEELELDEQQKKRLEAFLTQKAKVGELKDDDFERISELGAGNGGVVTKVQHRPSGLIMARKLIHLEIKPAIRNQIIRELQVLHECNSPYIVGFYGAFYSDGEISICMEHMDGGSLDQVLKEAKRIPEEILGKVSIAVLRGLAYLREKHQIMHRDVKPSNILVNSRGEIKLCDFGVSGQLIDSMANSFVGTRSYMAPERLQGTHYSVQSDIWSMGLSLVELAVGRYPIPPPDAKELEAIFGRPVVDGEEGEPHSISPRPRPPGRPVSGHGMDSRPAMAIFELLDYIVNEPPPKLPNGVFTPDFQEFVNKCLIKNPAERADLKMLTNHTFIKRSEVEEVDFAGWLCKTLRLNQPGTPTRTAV
T24 sequence (Q15831 whole entry): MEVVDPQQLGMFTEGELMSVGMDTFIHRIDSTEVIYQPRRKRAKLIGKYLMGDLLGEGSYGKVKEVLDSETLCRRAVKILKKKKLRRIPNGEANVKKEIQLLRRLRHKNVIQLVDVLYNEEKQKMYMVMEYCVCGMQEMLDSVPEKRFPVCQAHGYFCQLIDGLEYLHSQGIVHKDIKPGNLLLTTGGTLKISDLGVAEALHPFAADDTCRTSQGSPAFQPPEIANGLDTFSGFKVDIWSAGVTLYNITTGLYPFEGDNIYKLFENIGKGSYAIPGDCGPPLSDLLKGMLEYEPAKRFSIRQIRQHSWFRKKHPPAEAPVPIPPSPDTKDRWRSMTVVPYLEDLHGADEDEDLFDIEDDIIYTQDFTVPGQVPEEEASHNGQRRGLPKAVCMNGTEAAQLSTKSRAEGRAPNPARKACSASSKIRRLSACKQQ
T5 sequence (P28482 whole entry): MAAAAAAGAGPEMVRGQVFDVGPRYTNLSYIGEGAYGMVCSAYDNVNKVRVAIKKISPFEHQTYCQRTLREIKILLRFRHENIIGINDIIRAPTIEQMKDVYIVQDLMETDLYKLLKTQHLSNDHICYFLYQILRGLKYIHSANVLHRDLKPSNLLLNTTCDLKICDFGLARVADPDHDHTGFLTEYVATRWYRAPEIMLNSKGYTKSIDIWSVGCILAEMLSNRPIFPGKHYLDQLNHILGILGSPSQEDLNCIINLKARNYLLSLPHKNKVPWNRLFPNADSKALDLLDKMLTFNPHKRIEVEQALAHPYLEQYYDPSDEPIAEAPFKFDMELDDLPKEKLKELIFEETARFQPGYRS

`CCc1ccc2c(c1)C1(NN=C(c3ccccc3)S1)C(=O)N2` (stereo not shown) [OGM2] was tested, and the migration (WM115) was “inhibited migration”, the migration (MeWo) was “inhibited migration” and the clonogenicity (PANC02) was “reduced the clonogenicity of pancreatic cancer cells”.

In the case of `CCc1ccc2c(c1)C1(NN=C(c3cccc4ccccc34)S1)C(=O)N2` (stereo not shown) [OGM1, 5-ethyl-5′-naphthalen-1-ylspiro[1H-indole-3,2′-3H-1,3,4-thiadiazole]-2-one], the remaining binding at 10 µM [1] was 73%, the Antagonism (A2B; 10 uM) was −12.8 and the Agonism (A2B; 12.5 uM) was 4.4. The remaining binding at 10 µM (IKK-beta) was 92%, the remaining binding at 10 µM (LIMK1) was 100% and the remaining binding at 10 µM (ERK2) was 77%. The remaining binding at 10 µM (NEK9) was 100%, the remaining binding at 10 µM (AXL) was 100% and the remaining binding at 10 µM [2] was 82%. For the same compound, the remaining binding at 10 µM (ADCK4) was 70%, the Antagonism (AT1; 10 uM) was −0.7 and the Agonism (AT1; 12.5 uM) was −0.4. The remaining binding at 10 µM (INSRR) was 100%, the remaining binding at 10 µM (MEK2) was 94% and the remaining binding at 10 µM (CAMK4) was 100%. It also gave a remaining binding at 10 µM [3] of 84%, a remaining binding at 10 µM (NIM1) of 96% and a remaining binding at 10 µM [4] of 88%. For the same compound, the Antagonism (CCR4; 10 uM) was −4.1, the Agonism (CCR4; 12.5 uM) was −0.7 and the Antagonism (NK1; 10 uM) was −1.4. The Agonism (NK1; 12.5 uM) was −1.5, the remaining binding at 10 µM (MST1R) was 86% and the Antagonism (VPAC1; 10 uM) was 16.6. It also gave an Agonism (VPAC1; 12.5 uM) of 0, a remaining binding at 10 µM (DLK) of 40% and an Antagonism (mGlu2; 10 uM) of −1.2. It also gave an Agonism (mGlu2; 12.5 uM) of −0.4, an Antagonism (D1; 10 uM) of 5 and an Agonism (D1; 12.5 uM) of 0. The remaining binding at 10 µM (LKB1) was 78%, the remaining binding at 10 µM (ULK3) was 100% and the remaining binding at 10 µM (CAMK2A) was 75%. It also gave a remaining binding at 10 µM (MAST1) of 58%, a remaining binding at 10 µM (RET(V804L)) of 90% and an Antagonism (VPAC2; 10 uM) of 6.9. The Agonism (VPAC2; 12.5 uM) was 10.7.
